Assay results: article PMC9851200, “Multiparameter phenotypic screening for endogenous TFEB and TFE3 translocation identifies novel chemical series modulating lysosome function” (Autophagy, 2022)

Key:
endogenous TFE3 = experiment: TFE3 nuclear translocation, immunocytochemistry high-content imaging; format: cell-based; details: for TFE3 %: PKIS2 primary screening; for nTFE3 %: primary screen, 1 µM, 24 h, SH-SY5Y
CSNK1D = CSNK1D (Homo sapiens, UniProt P48730); details: cited from earlier work
SH-SY5Y cells [1] = experiment: Nuclear count from microscopy images (cellular growth and toxicity); details: PKIS2 primary screening; note: reference of the scale not given here
MTOR = MTOR (Homo sapiens, UniProt P42345); details: cited from earlier work
endogenous TFEB = experiment: TFEB nuclear translocation, immunocytochemistry high-content imaging; format: cell-based; details: PKIS2 primary screening
ACVR1B = biological target: T1, ACVR1B (Homo sapiens, UniProt P36896); details: cited from earlier work
T1 sequence (P36896 24-505): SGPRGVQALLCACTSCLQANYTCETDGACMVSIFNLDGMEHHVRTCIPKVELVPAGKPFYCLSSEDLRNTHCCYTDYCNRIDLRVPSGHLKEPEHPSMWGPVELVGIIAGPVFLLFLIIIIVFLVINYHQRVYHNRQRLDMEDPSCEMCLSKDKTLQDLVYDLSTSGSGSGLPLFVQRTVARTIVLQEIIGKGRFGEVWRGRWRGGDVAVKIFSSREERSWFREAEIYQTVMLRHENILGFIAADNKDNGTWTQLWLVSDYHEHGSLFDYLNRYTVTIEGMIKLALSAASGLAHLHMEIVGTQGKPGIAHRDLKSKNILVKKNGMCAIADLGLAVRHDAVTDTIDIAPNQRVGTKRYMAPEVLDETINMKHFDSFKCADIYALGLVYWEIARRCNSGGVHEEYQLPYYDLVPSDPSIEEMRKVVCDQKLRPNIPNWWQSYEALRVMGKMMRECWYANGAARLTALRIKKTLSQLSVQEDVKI

PIKFYVE = PIKFYVE (Homo sapiens, UniProt Q9Y2I7); details: cited from earlier work
CDC42BPG/DMPK2 = CDC42BPG/DMPK2 (Homo sapiens, UniProt Q6DT37); details: cited from earlier work
CDC42BPG/DMPK2, sequence (Q6DT37 whole entry): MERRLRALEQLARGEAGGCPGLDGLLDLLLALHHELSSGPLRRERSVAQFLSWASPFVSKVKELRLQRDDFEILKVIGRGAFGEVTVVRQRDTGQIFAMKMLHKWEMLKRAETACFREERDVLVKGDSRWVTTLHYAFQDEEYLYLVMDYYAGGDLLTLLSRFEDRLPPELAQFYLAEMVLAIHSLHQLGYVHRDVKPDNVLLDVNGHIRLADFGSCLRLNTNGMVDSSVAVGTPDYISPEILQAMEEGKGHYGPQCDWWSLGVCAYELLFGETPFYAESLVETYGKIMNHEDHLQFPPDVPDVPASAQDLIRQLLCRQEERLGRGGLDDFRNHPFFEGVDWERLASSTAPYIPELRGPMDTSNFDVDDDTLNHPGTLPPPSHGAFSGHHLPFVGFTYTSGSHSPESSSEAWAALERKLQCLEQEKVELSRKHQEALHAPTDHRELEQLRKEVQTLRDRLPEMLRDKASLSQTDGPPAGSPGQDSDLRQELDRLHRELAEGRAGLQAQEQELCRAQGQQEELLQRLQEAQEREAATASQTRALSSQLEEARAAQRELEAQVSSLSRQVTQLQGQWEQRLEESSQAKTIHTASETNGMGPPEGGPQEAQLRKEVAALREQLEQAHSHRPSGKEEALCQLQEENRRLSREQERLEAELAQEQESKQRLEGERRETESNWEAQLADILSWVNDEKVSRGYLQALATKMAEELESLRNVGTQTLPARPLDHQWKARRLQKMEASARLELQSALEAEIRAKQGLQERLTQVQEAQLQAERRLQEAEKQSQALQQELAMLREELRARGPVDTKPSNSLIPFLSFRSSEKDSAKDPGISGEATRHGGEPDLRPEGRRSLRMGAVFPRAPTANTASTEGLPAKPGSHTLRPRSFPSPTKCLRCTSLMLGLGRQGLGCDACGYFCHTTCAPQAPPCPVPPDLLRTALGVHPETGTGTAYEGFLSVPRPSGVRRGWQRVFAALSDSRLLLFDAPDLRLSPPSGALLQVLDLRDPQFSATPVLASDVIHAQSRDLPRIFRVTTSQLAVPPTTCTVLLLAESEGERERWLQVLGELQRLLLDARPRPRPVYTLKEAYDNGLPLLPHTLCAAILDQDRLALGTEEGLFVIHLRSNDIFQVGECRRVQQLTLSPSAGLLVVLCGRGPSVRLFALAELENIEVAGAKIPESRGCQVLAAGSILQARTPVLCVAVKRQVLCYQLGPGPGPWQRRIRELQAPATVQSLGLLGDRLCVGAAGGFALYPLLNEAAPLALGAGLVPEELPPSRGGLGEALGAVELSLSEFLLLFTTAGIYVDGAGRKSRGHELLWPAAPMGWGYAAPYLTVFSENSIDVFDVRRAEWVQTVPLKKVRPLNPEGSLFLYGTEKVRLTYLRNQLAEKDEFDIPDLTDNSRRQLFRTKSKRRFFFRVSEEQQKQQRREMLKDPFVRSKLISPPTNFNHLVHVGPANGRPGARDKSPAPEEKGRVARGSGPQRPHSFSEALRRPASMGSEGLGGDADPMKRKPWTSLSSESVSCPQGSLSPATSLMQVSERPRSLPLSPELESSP

SH-SY5Y cells [2] = details: PKIS2 primary screening; for DQ Intensity: DQ Red BSA intensity; for DQ Spot: DQ Red BSA spot count
Description: The PKIS2 Library was supplied by The Structural Genomics Consortium at the University of North Carolina at Chapel Hill.

CDC42BPB/MRCKB = CDC42BPB/MRCKB (Homo sapiens, UniProt Q9Y5S2); details: cited from earlier work
CDC42BPB/MRCKB, sequence (Q9Y5S2 whole entry): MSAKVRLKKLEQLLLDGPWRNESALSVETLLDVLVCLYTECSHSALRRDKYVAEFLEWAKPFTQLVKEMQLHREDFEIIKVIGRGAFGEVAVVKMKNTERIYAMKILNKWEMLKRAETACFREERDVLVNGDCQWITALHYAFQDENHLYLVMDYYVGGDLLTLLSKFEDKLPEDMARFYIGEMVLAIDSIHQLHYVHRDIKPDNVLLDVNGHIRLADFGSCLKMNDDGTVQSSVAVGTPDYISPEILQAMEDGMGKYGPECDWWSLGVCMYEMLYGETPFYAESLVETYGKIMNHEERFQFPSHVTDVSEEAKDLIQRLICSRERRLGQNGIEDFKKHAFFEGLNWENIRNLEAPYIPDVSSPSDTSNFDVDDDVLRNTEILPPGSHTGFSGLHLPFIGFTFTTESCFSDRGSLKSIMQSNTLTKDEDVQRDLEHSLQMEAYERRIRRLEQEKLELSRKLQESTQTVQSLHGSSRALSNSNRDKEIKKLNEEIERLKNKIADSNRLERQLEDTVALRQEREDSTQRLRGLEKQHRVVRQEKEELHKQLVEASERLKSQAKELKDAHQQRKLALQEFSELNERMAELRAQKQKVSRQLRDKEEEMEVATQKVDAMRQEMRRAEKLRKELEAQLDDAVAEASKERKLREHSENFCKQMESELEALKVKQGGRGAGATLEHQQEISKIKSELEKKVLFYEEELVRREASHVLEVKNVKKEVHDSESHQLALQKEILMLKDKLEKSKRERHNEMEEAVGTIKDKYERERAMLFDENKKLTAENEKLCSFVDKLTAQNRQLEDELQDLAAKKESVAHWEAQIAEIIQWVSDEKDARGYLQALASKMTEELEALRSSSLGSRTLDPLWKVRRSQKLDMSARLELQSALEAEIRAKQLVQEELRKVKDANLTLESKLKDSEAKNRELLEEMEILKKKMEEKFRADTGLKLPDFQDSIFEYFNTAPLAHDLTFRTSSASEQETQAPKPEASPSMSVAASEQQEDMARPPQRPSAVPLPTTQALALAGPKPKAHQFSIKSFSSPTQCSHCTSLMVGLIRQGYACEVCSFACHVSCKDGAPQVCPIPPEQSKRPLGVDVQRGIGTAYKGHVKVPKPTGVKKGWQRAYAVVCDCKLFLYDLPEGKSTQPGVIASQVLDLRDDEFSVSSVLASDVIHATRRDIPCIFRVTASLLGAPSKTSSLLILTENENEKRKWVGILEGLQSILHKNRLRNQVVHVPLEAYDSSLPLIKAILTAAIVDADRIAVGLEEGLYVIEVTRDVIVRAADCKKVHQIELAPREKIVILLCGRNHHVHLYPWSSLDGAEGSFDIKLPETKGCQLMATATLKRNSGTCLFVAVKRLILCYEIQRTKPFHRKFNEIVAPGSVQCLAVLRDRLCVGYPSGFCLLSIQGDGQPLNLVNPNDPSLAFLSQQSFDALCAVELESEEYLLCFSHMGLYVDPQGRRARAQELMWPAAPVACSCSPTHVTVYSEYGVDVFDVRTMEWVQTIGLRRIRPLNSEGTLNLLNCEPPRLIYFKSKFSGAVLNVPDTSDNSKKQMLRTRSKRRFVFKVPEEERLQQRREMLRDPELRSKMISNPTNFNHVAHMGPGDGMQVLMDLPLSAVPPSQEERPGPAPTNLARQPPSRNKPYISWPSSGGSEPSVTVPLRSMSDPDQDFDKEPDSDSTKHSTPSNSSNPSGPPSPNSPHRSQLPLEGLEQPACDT

JAK1(JH2) = biological target: T2, JAK1(JH2) (Homo sapiens, UniProt P23458); details: cited from earlier work
T2 construct: JAK1(JH2)
T2 sequence (P23458 583-855 limits assumed): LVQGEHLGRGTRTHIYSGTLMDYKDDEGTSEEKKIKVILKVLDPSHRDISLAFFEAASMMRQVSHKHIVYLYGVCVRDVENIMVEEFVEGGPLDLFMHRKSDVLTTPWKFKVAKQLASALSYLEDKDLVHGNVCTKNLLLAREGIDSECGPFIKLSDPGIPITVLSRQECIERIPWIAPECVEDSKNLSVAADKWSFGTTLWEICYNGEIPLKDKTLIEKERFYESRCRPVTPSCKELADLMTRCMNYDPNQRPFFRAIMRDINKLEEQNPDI

PRKD3 = biological target: T3, PRKD3 (Homo sapiens, UniProt O94806); details: cited from earlier work
T3 sequence (O94806 1-890): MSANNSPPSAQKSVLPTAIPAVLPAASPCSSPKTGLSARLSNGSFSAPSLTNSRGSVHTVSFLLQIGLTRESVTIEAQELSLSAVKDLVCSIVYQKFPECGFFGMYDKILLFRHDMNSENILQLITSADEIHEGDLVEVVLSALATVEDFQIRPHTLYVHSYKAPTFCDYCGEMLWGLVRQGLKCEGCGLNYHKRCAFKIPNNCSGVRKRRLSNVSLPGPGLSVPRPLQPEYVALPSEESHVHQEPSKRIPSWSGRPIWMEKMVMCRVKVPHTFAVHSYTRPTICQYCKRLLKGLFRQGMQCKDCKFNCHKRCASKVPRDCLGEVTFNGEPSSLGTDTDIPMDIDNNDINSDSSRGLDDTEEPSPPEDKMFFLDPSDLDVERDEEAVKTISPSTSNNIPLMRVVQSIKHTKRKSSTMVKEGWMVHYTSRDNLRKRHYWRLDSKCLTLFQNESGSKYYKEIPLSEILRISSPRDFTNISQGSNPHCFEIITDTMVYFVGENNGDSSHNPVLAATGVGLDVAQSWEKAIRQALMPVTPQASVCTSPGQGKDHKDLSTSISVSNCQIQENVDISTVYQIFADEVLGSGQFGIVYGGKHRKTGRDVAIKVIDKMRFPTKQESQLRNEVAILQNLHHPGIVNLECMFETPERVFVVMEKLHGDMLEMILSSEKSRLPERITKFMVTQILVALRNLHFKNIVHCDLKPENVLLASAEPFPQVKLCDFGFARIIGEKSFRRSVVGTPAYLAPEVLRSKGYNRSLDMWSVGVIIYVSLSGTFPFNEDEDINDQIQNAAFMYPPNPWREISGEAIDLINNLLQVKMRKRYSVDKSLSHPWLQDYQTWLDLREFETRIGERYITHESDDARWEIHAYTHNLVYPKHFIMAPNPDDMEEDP

TGFBR2 = TGFBR2 (Homo sapiens, UniProt P37173); details: cited from earlier work
TGFBR2, sequence (P37173 23-567): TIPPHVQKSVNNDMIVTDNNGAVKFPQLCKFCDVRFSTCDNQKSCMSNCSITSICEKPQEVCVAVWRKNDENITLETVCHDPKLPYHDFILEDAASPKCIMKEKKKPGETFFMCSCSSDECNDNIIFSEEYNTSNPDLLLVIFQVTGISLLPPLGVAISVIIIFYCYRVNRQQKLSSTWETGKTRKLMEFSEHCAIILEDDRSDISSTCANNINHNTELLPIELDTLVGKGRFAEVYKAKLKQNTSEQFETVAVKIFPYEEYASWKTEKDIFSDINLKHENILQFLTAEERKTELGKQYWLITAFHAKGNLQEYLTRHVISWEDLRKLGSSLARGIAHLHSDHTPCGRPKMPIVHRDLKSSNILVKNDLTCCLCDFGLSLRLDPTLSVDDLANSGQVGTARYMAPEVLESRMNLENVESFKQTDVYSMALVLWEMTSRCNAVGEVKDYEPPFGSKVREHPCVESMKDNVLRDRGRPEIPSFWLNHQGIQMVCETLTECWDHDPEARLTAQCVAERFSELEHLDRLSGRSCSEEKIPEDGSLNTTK

PRKD1 = biological target: T4, PRKD1 (Homo sapiens, UniProt Q15139); details: cited from earlier work
T4 sequence (Q15139 1-912): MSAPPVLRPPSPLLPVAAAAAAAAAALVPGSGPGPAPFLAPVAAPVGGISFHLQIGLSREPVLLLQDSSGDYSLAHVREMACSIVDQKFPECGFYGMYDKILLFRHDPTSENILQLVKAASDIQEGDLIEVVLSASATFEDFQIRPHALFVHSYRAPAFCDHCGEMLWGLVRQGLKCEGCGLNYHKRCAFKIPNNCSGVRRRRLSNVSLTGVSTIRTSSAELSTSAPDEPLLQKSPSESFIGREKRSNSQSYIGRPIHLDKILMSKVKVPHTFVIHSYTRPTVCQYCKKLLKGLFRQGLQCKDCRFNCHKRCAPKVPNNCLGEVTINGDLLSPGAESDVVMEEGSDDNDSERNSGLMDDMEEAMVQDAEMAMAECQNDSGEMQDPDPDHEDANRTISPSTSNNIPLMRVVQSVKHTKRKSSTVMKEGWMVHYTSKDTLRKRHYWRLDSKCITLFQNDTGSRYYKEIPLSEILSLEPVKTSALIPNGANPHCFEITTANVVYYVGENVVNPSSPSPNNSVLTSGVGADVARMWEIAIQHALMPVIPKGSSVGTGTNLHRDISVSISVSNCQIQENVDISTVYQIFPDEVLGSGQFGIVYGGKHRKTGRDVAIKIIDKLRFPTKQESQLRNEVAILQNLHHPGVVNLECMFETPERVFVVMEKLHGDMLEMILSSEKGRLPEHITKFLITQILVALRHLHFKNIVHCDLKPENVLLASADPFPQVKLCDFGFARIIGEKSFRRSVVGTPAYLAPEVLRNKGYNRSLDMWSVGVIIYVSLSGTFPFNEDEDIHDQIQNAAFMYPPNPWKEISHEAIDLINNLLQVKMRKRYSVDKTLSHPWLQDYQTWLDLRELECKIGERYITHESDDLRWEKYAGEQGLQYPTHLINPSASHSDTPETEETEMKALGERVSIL
Throughout, for DQ Intensity: reference of the scale not given here.
Throughout, for DQ Spot: reference of the scale not given here.

CSNK1D, sequence (P48730 whole entry): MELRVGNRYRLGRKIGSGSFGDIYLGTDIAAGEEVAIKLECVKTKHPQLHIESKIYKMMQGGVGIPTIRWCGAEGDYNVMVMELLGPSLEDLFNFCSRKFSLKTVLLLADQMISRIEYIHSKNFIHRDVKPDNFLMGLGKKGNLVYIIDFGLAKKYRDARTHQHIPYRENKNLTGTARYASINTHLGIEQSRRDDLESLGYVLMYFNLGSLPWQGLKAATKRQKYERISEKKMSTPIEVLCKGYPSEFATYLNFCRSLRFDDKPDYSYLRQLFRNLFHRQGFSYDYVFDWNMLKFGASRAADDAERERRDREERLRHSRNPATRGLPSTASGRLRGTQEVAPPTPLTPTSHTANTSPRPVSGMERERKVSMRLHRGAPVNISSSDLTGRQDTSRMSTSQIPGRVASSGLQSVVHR

Compound | TFE3 % (endogenous TFE3) [%] | nTFE3 % (endogenous TFE3) [%] | KINOMEscan binding CSNK1D (CSNK1D) [%] | Nuclear Count (SH-SY5Y cells [1]) | KINOMEscan binding MTOR (MTOR) [%] | TFEB % (endogenous TFEB) [%] | KINOMEscan binding ACVR1B (ACVR1B) [%] | KINOMEscan binding PIKFYVE (PIKFYVE) [%] | KINOMEscan binding CDC42BPG/DMPK2 (CDC42BPG/DMPK2) [%] | DQ Intensity (SH-SY5Y cells [2]) | DQ Spot (SH-SY5Y cells [2]) | KINOMEscan binding CDC42BPB/MRCKB (CDC42BPB/MRCKB) [%] | KINOMEscan binding JAK1(JH2) (JAK1(JH2)) [%] | KINOMEscan binding PRKD3 (PRKD3) [%] | KINOMEscan binding TGFBR2 (TGFBR2) [%] | KINOMEscan binding PRKD1 (PRKD1) [%]
Cc1cccc(-c2nc(Nc3ccncc3)c3ccccc3n2)n1 [GW855857] | 15.51 | 15.5 | 73 | 124.29 | 50 | 6.50 | 94.3 | 57 | 76 | 79.80 | 95.73 | 63 | 74 | 69 | 95.7 | 86
Cc1cccc(-c2nc(Nc3ccc4nn[nH]c4c3)c3ccccc3n2)n1 [GW867587] | 12.03 | 12 | 4 | 123.89 | 5 | 14.22 | 0 | 13 | 0 | 114.16 | 102.41 | 2 | 52 | 66 | 0 | 94.2
Cc1cccc(-c2nc(Nc3ccc4ncsc4c3)c3ccccc3n2)n1 [GW867588] | 18.78 | 18.7 | 0 | 62.46 | 0 | 27.23 | 35 | 54 | 9 | 95.27 | 103.18 | 33 | 62 | 66 | 0 | 98.7
Cc1csc(-c2nc(Nc3ccncc3)c3ccccc3n2)n1 [GW869640] | 13.20 | 13 | 46 | 81.77 | 74 | 2.75 | 94.7 | 78 | 35 | 86.86 | 102.29 | 44 | 74 | 71 | 88 | 69
Cc1cccc(-c2nc(Nc3ccncc3)c3sccc3n2)n1 [GW869641] | 6.93 | 6.9 | 90 | 70.17 | 75 | 20.32 | 96.5 | 86 | 98.5 | 90.97 | 102.97 | 98.5 | 90.2 | 90.7 | 95.6 | 99.3
Cc1cc(Nc2nc(-c3cccc(C)n3)nc3ccccc23)ccn1 [GW872411] | 20.21 | 20.2 | 35 | 94.17 | 73 | 5.91 | 73 | 53 | 2 | 103.32 | 114.14 | 0 | 81 | 76 | 0 | 99.4
Clc1cccc(-c2nc(Nc3ccncc3)c3ccccc3n2)c1 [GW873004] | 19.51 | 19.5 | 12 | 66.61 | 36 | 4.68 | 72 | 61 | 84 | 102.26 | 118.51 | 42 | 16 | 44 | 17 | 47
Cc1cccc(-c2nc(Nc3cccc(C(N)=O)c3)c3ccccc3n2)n1 [GW876019] | 17.52 | 17.5 | 8 | 75.33 | 35 | 7.94 | 83 | 16 | 0 | 115.76 | 107.41 | 32 | 78 | 87 | 15 | 64
Cc1cccc(-c2nc(Nc3ccc4c(cnn4C)c3)c3ccccc3n2)n1 [GW876731] | 20.31 | 20.3 | 50 | 107.18 | 0 | 18.65 | 64 | 91.5 | 22 | 96.16 | 100.57 | 34 | 16 | 90.2 | 0 | 99.2
